The numbers were not newly measured in patent US4221778A, “Prolonged release pharmaceutical preparations” (Pennwalt Corporation, priority 1979, dated 1980), which cites them from elsewhere.

Molecules are shown by their SMILES. Structures can show the parent of a compound that is named as a salt.

Test in data set [1]: not given
The source holds these as a separate data set.

Test in data set [2]: not given
This is another data set of the same source.

On to `CC(N)C(O)c1ccccc1` (stereo not shown) [PPA, phenylpropanolamine], for which the pKa is on record as 9.4. Also, in data set [1], the “biological half life in man” value is listed as 3.9 hours.
As to `COc1ccc2c(c1)[C@]13CCCC[C@@H]1[C@H](C2)N(C)CC3` [Dextromethorphan], the “effectiveness in patients with pathological cough” value in the data set on pathological cough (compared with codeine) is given as “about the equal of codeine”. For the same compound, in the data set on pathological cough (human, in vivo), the “analgesic or addictive properties” value was “no analgesic or addictive properties” and the toxicity entry is “quite low”. The drowsiness entry in the data set on pathological cough (unlike codeine) was “rarely produces drowsiness”.
`CN[C@@H](C)[C@@H](O)c1ccccc1` [Pseudoephedrine]: in data set [1], the “biological half life in man” value was 5-7 hours.
Regarding `CC(C)(N)Cc1ccccc1` [Phentermine hydrochloride], the “blood levels in humans” value in data set [2] (hydrochloride salt, doses of 15 mg. and 30 mg.) is given as “rapid peak concentrations”.
Take `CN[C@@H](C)[C@H](O)c1ccccc1` [Ephedrine]: the “biological half life in man” value in data set [1] is given as “about 6 hours”.
Take `CC(C)(N)Cc1ccccc1` [Phentermine, phenyl-tertiary-butyl-amine]: in data set [2] (free form), the “absorption from the gastrointestinal tract” value was “rapidly absorbed”.
